Assay results published in publication PMC9032385, “A2A Adenosine Receptor Antagonists: Are Triazolotriazine and Purine Scaffolds Interchangeable?” (Molecules, 2022).

Columns and labels:
[1] = system: BV-2 murine microglial cells; experiment: MTT viability assay in BV-2 cells; assay type: cell-based; conditions: 24 h, 50–5000 nM, up to 5 μM
Experimental: First of all, we verified the potential cytotoxicity of 13 in our cell model system. BV-2 cells were treated with increasing concentrations of the compound for 24 h and cell viability was evaluated by MTT assay (Figure 4A).
Cell Cultures and Treatments: BV-2 murine microglial cells (a gift from Prof. Elisabetta Blasi of the University of Modena and Reggio Emilia, Modena, Italy) were maintained at 37 °C and 5% CO2 in a humidified incubator and grown in DMEM supplemented with 10% (v/v) low-endotoxin fetal bovine serum (Euroclone—Milan, Italy), 2 mM L-glutamine, 50 U/mL penicillin, and 50 μg/mL streptomycin (Sigma-Aldrich–Merck, Milan, Italy). Cells were seeded at 50,000 cells/mL in 96-well tissue culture plates for the viability assay, in 6-well tissue culture plates for the Griess assay and RT-PCR assay. BV-2 cells were treated for 24 h with ANR 94 or 13 at different concentrations and then exposed to LPS (100 ng/mL; Sigma-Aldrich–Merck) for a further 24 h.
MTT Viability Assay: MTT assay was performed to quantify the viability of BV-2 cells as previously reported. […] The absorbance was measured at 595 nm using a microplate spectrophotometer (VICTOR3 V Multilabel Counter; PerkinElmer, Wellesley, MA, USA). Data are expressed as a percentage of the control cells, which is considered 100% cell viability.

human recombinant A1AR = molecular target: T1, human recombinant A1AR (Homo sapiens, UniProt P30542); experiment: Radioligand binding at human A1AR ([3H]CCPA displacement, CHO cell membranes); conditions: displacement of [3H]CCPA, n = 3–5, means ± standard errors
T1 construct: expressed in transfected cells; membrane preparation
T1 sequence (P30542 1-326): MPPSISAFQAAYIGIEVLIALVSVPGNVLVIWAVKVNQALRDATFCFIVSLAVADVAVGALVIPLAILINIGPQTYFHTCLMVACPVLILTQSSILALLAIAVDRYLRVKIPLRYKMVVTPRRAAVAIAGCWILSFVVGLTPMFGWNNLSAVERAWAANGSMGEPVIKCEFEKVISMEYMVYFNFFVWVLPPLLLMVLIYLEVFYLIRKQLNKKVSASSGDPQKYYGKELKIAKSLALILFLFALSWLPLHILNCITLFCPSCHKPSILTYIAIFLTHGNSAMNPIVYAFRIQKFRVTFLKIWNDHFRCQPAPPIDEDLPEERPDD
Experimental: The affinities of the newly synthesized compounds 7–13 and 17–21 were determined in binding studies at human recombinant A1, A2A, and A3 ARs, stably transfected in Chinese hamster ovary (CHO) cells, using [^3H]CCPA (2-chloro-N^6-cyclopentylAdo), [^3H]NECA (5′-N-ethylcarboxamidoAdo), and [^3H]HEMADO (2-hexynyl-N^6-methylAdo) as respective radioligands. Most of the compounds were also evaluated at A2BARs in a functional study using the GloSensor cAMP assay. The results are reported in Table 1 as Ki values in nM (± standard errors). In the case of A2BARs, Ki-values were calculated from IC50-values determined by the inhibition of NECA-stimulated adenylyl cyclase activity.
Cell culture: The Chinese hamster ovary cells (CHO) stably transfected with the desired ARs were grown in DMEM/F12 medium containing 10% FBS (fetal bovine serum), 100 U/mL penicillin, 100 µg/mL streptomycin, 2.5 μg/mL amphotericin B, 1 mM sodium pyruvate, 0.1 mg/mL genetecina (G418), and incubated at 37 °C in a gaseous mixture of 5% CO2: […].
Preparation of membranes: Cell membranes for binding assays were prepared mechanically detaching the cells from the petri and suspending them in a cold hypotonic buffer (5 mM Tris/HCl, 2 mM EDTA, pH 7.4). The cell suspension was homogenized (Ultra-Turrax, 2 × 15 s at maximum speed) and the homogenate centrifuged for 10 min (4 °C) to 1000× g. The supernatant was subsequently centrifuged for 30 min (4 °C) at 100,000× g and the pellet containing the membrane proteins was re-suspended in a specific buffer for each receptor subtype (A1: 50 mM Tris/HCl, pH 7.4; A2A: 50 mM Tris/HCl, 10 mM MgCl2, pH 7.4; A3: 50 mM Tris/HCl, 10 mM MgCl2, 1 mM EDTA, pH 8.25). The amount of the protein suspension was determined according to the […] using the BCA Protein Assay Kit (Pierce), frozen in liquid nitrogen, and stored at −80 °C.
Binding assays: The dissociation constants of the radioligand (KD) were calculated through saturation assays, while the dissociation constants of the compounds under study (Ki) were determined by competition experiments. All binding data were calculated by nonlinear regression curves using the software GraphPad Prism 5 (GraphPad Software, San Diego, CA, USA). The increasing concentrations of the radioligand saturation binding ([^3H]-CCPA for the A1 receptor subtype, [^3H]-NECA for the A2A receptor subtype, and [^3H]-HEMADO for the A3 receptor) subtype were incubated in a total volume of 250 μL containing 0.2 U/mL of Ado deaminase (ADA) and 12 micrograms of membrane proteins in the specific buffer. In competition experiments for the A1 receptor subtype, each compound was added at increasing concentrations, to the well containing 1 nM of [^3H]-CCPA, to a final volume of 200 μL. The samples were left to incubate for 3 h at room temperature, filtered in a filter 96-well plate (UniFilter GF/C, Perkin-Elmer Life and Analytical Science, Boston, MA) using the FilterMate Cell Harvester (Perkin-Elmer), and washed 3 times with cold distilled water. After drying the filter plate at 40 °C for 30′, they 20 μL of scintillating liquid (Microscint-20, Perkin-Elmer) was added to each well, and then the radioactivity was quantized with the MicroBeta2 Plate Counter (Perkin-Elmer). The conditions for binding experiments at A2A and A3 receptor subtypes were essentially the same as for the A1AR using [^3H]-NECA (N-ethylcarboxyamideAdo) at a concentration of 10 nM and [^3H]-HEMADO (2-(1-hexyne)-N^6-methylAdo) at a concentration of 1 nM as radioligands, respectively. The samples were incubated with 12 micrograms of protein for 3 h at room temperature and filtered as described above.
The non-specific binding was determined in the presence of 1 mM theophylline for the A1AR, or 100 µM R-PIA (N^6-(1-methyl-2-phenylethyl)Ado) for the A2A and A3 receptors.

With `CCn1c(-c2ccco2)nc2c(N)nc(NCCc3ccc(O)cc3)nc21` [compound 13, 4-(2-((6-Amino-9-ethyl-8-(furan-2-yl)-9H-purin-2-yl)amino)ethyl)phenol] the “cytotoxicity (cell viability, MTT)” value [1] was “did not show any cytotoxicity” and the Ki (human recombinant A1AR) was 51 nM.
